Each structure is given as a SMILES string.

The logP is a log measure of how a compound divides between an organic and an aqueous phase. In turn, `O=P(N1CC1)(N1CC1)N(N=Cc1ccc(F)cc1)c1ccccc1` displayed a logP of 0.56.

Turning to `O=[N+]([O-])c1ccc(N(N=Cc2ccccc2)P(=O)(N2CC2)N2CC2)cc1`, the logP came to 0.57.

In turn, `CN(N=Cc1ccc([N+](=O)[O-])cc1)P(=O)(N1CC1)N1CC1` had a lipophilicity (logP) of 0.51.

`O=P(NN=Cc1ccc(Cl)cc1)(N1CC1)N1CC1` yielded a lipophilicity (logP) of 0.13.

In turn, `CC(C)=NN(C)P(=O)(N1CC1)N1CC1` displayed a logP of 0.51.

In turn, `COc1ccc(C=NN(C)P(=O)(N2CC2)N2CC2)cc1` had a logP of 0.47.

The compound `COc1ccc(C=NN(c2ccccc2)P(=O)(N2CC2)N2CC2)cc1` returned a logP of 0.57.

Take `O=[N+]([O-])c1ccc(C=NNP(=O)(N2CC2)N2CC2)cc1`: the logP came out at 0.45.

The compound `O=P(N1CC1)(N1CC1)N(N=Cc1ccc(Cl)cc1)c1ccccc1` returned a log partition coefficient (logP) of 0.35.

Compound `CC(C)=NN(c1ccccc1)P(=O)(N1CC1)N1CC1` had a logP of 0.57.

In turn, `O=P(NN=Cc1ccccc1)(N1CC1)N1CC1` displayed a logP of 0.48.

The compound `COc1ccc(C=NNP(=O)(N2CC2)N2CC2)cc1` showed a logP of 0.42.

In turn, `O=P(NN=Cc1ccc(F)cc1)(N1CC1)N1CC1` returned a log partition coefficient (logP) of 0.45.

In turn, `CN(N=Cc1ccc(F)cc1)P(=O)(N1CC1)N1CC1` registered a logP of 0.48.

The compound `CN(N=Cc1ccc(Br)cc1)P(=O)(N1CC1)N1CC1` yielded a logP of 0.31.

The compound `CN(N=Cc1ccccc1)P(=O)(N1CC1)N1CC1` registered a lipophilicity (logP) of 0.51.

`CC(C)=NNP(=O)(N1CC1)N1CC1` returned a logP of 0.45.

In the case of `O=P(N1CC1)(N1CC1)N(N=Cc1ccccc1)c1ccccc1`, the logP amounted to 0.56.

`O=[N+]([O-])c1ccc(C=NN(c2ccccc2)P(=O)(N2CC2)N2CC2)cc1` returned a logP of 0.57.

(Values after the OPERA property sets (Mansouri et al. 2018).)
